From US11130780B2, “Inhibitors of growth factor activation enzymes” (Washington University, priority 2015, dated 2021)
Like-named read-outs stand apart in the source and are kept apart here. Starred links: 1 amine or outer side, 2 acyl side, 3 side chain; linkers in the order of their positions; H or OH if unused. Non-standard residues stand in square brackets, D forms with d. Residues, ends and D or L forms follow the SMILES beside them. X1 = N=C(N)NCCC[C@H](N[*:1])C(=O)c1nc2ccc(C(=O)[*:2])cc2s1

Tests used:
Assay type in all cases: biochemical
thrombin = thrombin (Homo sapiens, UniProt P00734); assay: Chromogenic kinetic enzyme assay of thrombin
Method: (§1) Inhibitors (11-pt serial dilutions, 0-20 μM final concentration) were serially diluted in DMSO (2% DMSO final concentration) and then mixed with recombinant thrombin (0.15 nM final concentration) or Factor Xa (0.35 nM final concentration) in TNC buffer (25 mM Tris, 150 mM NaCl, 5 mM CaCl2, 0.01% TRITON X-100, pH 8) using clear 384 well plates. […] Changes in absorbance at 405 nm were measured over time in a Biotek Synergy 2 plate (Winnoski, Vt.). Using GraphPad Prism version 6.04 software program, (GraphPad Software, San Diego, Calif., www.graphpad.com), a four parameter curve fit was used to determine the inhibitor IC50s from a plot of the mean reaction velocity versus the inhibitor concentration. Ki values were calculated from the IC50 values using the Cheng and Prusoff equation (Ki=IC50/(1+[S]/Km).

Factor Xa = Factor Xa (Homo sapiens, UniProt P00742); assay: Chromogenic kinetic enzyme assay of Factor Xa
Method: as §1

hepsin = biological target: T1, hepsin (Homo sapiens, UniProt P05981); assay: Fluorescent kinetic enzyme inhibitor assay of hepsin
T1 construct: purchased R&D Systems 4776-SE-010
Summary of the method: (§2)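 Fluorescence (ex 380/em 460 nm) followed kinetically at room temperature; IC50 from four-parameter fit of mean velocity versus concentration, averaged over three experiments.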

HGFA = biological target: T2, HGFA (Homo sapiens, UniProt Q04756); assay: Fluorescent kinetic enzyme inhibitor assay of HGFA; conditions: read-out: HGFA Ki
T2 construct: His6 tag (N); seven amino acid spacer and seven amino acid TEV cleavage site (N); Honey Bee melittin signal peptide (N); made in house; host or cells: High 5 insect cells (baculovirus; virus raised in Sf9)
T2 sequence (Q04756 373-655): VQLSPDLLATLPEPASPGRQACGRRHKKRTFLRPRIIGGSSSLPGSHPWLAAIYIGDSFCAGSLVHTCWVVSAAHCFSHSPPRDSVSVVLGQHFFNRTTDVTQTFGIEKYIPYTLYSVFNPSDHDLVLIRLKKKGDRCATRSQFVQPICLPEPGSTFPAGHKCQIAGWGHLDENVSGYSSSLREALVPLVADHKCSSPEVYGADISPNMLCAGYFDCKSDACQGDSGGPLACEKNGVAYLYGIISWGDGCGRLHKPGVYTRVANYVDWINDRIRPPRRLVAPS
Summary of the method: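 Recombinant His-tagged HGFA residues 373-655 from insect cells, with substrate at Km. Inhibitors in 11-point dilutions, 0-20 μM final, 2% DMSO, fluorescence (ex 380/em 460 nm) followed over time at room temperature. IC50 from four-parameter fit of mean velocity, average of three experiments.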

matriptase = biological target: T3, matriptase (Homo sapiens, UniProt Q9Y5Y6); assay: Fluorescent kinetic enzyme inhibitor assay of matriptase
T3 construct: Charles Craik, UCSF (obtained from another laboratory)
T3 sequence (Q9Y5Y6 615-855 limits assumed): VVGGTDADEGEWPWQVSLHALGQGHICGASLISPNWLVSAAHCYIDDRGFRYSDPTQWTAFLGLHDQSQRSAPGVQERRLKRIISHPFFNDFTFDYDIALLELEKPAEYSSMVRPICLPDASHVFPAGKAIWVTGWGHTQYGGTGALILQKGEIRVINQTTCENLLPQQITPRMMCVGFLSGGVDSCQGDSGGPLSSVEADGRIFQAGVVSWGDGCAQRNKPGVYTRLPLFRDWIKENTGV
Summary of the method: as §2

[1] = Table 6.1, Fluorogenic Assay, read-out: Hepsin Ki
[2] = Table 6.2, headed Fluorogenic Assay, read-out: Thrombin Ki
[3] = Table 6.2, headed Fluorogenic Assay, read-out: Factor Xa Ki

Chain of Factor Xa (P00742 235-488 limits assumed): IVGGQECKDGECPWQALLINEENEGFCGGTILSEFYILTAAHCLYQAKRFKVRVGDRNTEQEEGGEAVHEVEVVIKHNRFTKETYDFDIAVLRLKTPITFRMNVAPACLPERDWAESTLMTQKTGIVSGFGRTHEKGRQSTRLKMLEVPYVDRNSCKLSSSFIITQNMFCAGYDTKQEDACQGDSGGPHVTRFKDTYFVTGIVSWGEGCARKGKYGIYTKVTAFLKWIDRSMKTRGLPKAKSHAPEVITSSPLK
Chain of Factor Xa (P00742 41-179 partner limits assumed): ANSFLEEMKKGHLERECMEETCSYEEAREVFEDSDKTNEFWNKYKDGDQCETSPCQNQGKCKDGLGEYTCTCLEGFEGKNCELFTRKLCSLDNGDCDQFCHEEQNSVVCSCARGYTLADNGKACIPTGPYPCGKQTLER
T1 sequence (P05981 163-417 limits assumed): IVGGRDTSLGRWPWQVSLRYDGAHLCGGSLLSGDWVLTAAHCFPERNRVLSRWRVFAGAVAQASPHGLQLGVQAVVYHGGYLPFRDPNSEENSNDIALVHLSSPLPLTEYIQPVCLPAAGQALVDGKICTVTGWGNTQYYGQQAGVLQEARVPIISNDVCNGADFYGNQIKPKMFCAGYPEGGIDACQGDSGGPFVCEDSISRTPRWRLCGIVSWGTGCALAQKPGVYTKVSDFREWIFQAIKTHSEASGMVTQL
T1 sequence (P05981 45-162 partner limits assumed): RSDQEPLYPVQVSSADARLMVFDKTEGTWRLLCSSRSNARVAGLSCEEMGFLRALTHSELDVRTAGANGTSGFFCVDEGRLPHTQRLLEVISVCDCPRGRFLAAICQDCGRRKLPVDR

Ki (HGFA; Table 6.1, Fluorogenic Assay) [µM] | Ki (thrombin; [2]) [µM] | Ki (Factor Xa; [3]) [µM] | Structure (SMILES) | also measured
0.0739 | 0.041 | 0.159 | CC(C)C[C@H](NC(=O)[C@@H](N)Cc1c[nH]c2ccccc12)C(=O)N[C@@H](CCCNC(=N)N)C(=O)c1nc2ccc(C(=O)N[C@H](C(N)=O)C(C)C)cc2s1 [Compound 7181, H-WLR-kbt V amide] | 
0.132 | > 2 | 1.25 | CC(=O)N[C@@H](CO)C(=O)N[C@@H](CCCCN)C(=O)N[C@@H](CC(C)C)C(=O)N[C@@H](CCCNC(=N)N)C(=O)c1nc2ccc(C(=O)O)cc2s1 [Compound 7118, Ac-SKLR(SEQ ID NO: 10)-Kbt-COOH] | 
0.0158 | 1.23 | 0.163 | CC(=O)N[C@@H](CO)C(=O)N[C@@H](CCCCN)C(=O)N[C@@H](CC(C)C)C(=O)N[C@@H](CCCNC(=N)N)C(=O)c1nc2ccc(C(=O)N[C@@H](Cc3c[nH]c4ccccc34)C(N)=O)cc2s1 [Compound 7124, Ac-SKLR(SEQ ID NO: 10)-Kbt-Trp— NH2] (Ac-SKL[X1]W-NH2) | 
0.104 | 0.457 | 0.532 | CC(C)C[C@H](NC(=O)[C@@H](N)Cc1c[nH]c2ccccc12)C(=O)N[C@@H](CCCNC(=N)N)C(=O)c1nc2ccccc2s1 [Compound 7170, H-WLR-kbt] | 
0.0821 | 0.101 | 0.159 | CC(C)C[C@H](NC(=O)[C@@H](N)CC(C)C)C(=O)N[C@@H](CCCNC(=N)N)C(=O)c1nc2ccc(C(=O)N[C@H](C(N)=O)C(C)C)cc2s1 [Compound 7182, H-LLR-kbt V amide] | 
0.0091 | 2.47 | 0.19 | CC(=O)N[C@@H](CO)C(=O)N[C@@H](CCCCN)C(=O)N[C@@H](CC(C)C)C(=O)N[C@@H](CCCNC(=N)N)C(=O)c1nc2ccc(C(=O)NCc3ccccc3)cc2s1 [Compound 7139, Ac-SKLR(SEQ ID NO: 10)-Kbt- benzylamide] | 
0.45 | 0.995 | 0.41 | CC(C)C[C@H](NC(=O)OCC1c2ccccc2-c2ccccc21)C(=O)N[C@@H](CCCNC(=N)N)C(=O)c1nc2ccccc2s1 [Compound 7185-11, Fmoc-LR-kbt] | 
0.0318 | 3.43 | 0.221 | CC(=O)N[C@@H](CO)C(=O)N[C@@H](CCCCN)C(=O)N[C@@H](CC(C)C)C(=O)N[C@@H](CCCNC(=N)N)C(=O)c1nc2ccc(C(=O)Nc3ccncc3)cc2s1 [Compound 7126, Ac-SKLR(SEQ ID NO: 10)-Kbt-4-pyridinylamide] | Ki (hepsin; [1]): 0.00014 µM
0.0125 | 0.548 | 0.018 | CC(C)C[C@H](NC(=O)[C@@H](N)CCCNC(=N)N)C(=O)N[C@@H](CCCNC(=N)N)C(=O)c1nc2ccc(C(=O)N[C@H](C(N)=O)C(C)C)cc2s1 [Compound 7180, H-RLR-kbt V amide] | 
0.012 | 3.21 | 0.066 | CC(=O)N[C@@H](CCCCN)C(=O)N[C@@H](CCC(N)=O)C(=O)N[C@@H](CC(C)C)C(=O)N[C@@H](CCCNC(=N)N)C(=O)c1nc2ccc(C(=O)N[C@H](C(N)=O)C(C)C)cc2s1 [Compound 7055, Ac-KQLR(SEQ ID NO: 1)-Kbt-Val—NH2] (Ac-KQL[X1]V-NH2) | Ki (matriptase): 0.007 µM; Ki (hepsin; read-out: hepsin Ki): 0.0003 µM; Ki (HGFA): 0.013 µM
0.00583 | 1.56 | 0.017 | CC(=O)N[C@@H](CCCCN)C(=O)N[C@@H](CCCNC(=N)N)C(=O)N[C@@H](CC(C)C)C(=O)N[C@@H](CCCNC(=N)N)C(=O)c1nc2ccc(C(=O)N[C@H](C(N)=O)C(C)C)cc2s1 [Compound 7115, Ac-KRLR(SEQ ID NO: 8)-Kbt-Val—NH2] (Ac-KRL[X1]V-NH2) | Ki (matriptase; Table 6.1, Fluorogenic Assay): 0.00741 µM
0.0077 | 2.95 | 0.447 | CC(=O)N[C@@H](CO)C(=O)N[C@@H](CCCCN)C(=O)N[C@@H](CC(C)C)C(=O)N[C@@H](CCCNC(=N)N)C(=O)c1nc2ccc(C(=O)NC3CCNCC3)cc2s1 [Compound 7140, Ac-SKLR(SEQ ID NO: 10)-Kbt-4-piperidinylamide] | 
0.00607 | 1.94 | 0.0202 | CC(=O)N[C@@H](CCCCN)C(=O)N[C@@H](CCCNC(=N)N)C(=O)N[C@@H](CC(C)C)C(=O)N[C@@H](CCCNC(=N)N)C(=O)c1nc2ccc(C(=O)NCc3cccc(C(=O)O)c3)cc2s1 [Compound 7165, Ac-KRLR(SEQ ID NO: 8)-Kbt-5-COOH] | 
0.133 | > 20 | 0.001 | CC(=O)N[C@@H](Cc1c[nH]c2ccccc12)C(=O)N[C@@H](CC(C)C)C(=O)N[C@@H](Cc1ccccc1)C(=O)N[C@@H](CCCNC(=N)N)C(=O)c1nc2ccccc2s1 [Compound 7064, Ac-WLFR(SEQ ID NO: 20)-Kbt] | 
0.0831 | 8.2 | 0.056 | CC(C)C[C@H](NC(=O)[C@@H](N)CCCNC(=N)N)C(=O)N[C@@H](CCCNC(=N)N)C(=O)c1nc2ccccc2s1 [Compound 7171, H-RLR-kbt] | 
0.0173 | 3.64 | 0.544 | CC(=O)N[C@@H](CO)C(=O)N[C@@H](CCCCN)C(=O)N[C@@H](CC(C)C)C(=O)N[C@@H](CCCNC(=N)N)C(=O)c1nc2ccc(C(=O)N[C@@H](Cc3ccccc3)C(N)=O)cc2s1 [Compound 7125, Ac-SKLR(SEQ ID NO: 10)-Kbt-Phe— NH2] (Ac-SKL[X1]F-NH2) | Ki (hepsin; [1]): 0.00014 µM

Structure (SMILES) | Ki (HGFA; Table 6.1, Fluorogenic Assay) [µM] | Ki (thrombin; [2]) [µM] | Ki (Factor Xa; [3]) [µM] | also measured
CC(=O)N[C@@H](CO)C(=O)N[C@@H](CCCCN)C(=O)N[C@@H](CC(C)C)C(=O)N[C@@H](CCCNC(=N)N)C(=O)c1nc2ccc(C(=O)N[C@H](C(N)=O)C(C)C)cc2s1 [Compound 7116, Ac-SKLR(SEQ ID NO: 10)-Kbt-Val— NH2] (Ac-SKL[X1]V-NH2) | 0.013 |  |  | Ki (thrombin): 4.5 µM; Ki (Factor Xa): 0.385 µM; Ki (hepsin; [1]): 0.00019 µM
